Patent publication US11691976B2, “Coelenterazine analogues” (PROMEGA CORPORATION, priority 2018, dated 2023)

Experiments:
NANOLUC® Luciferase = NANOLUC® Luciferase (Oplophorus gracilirostris, UniProt Q9GV45, A31E/A60N/A81I/F95D/I117V/K70R/L54V/L99Q/M102K/N193R/P142E/Q151K/Q38R/Q45L/V71I/Y165I); test: Luminescence assay: substrate titration with purified NANOLUC Luciferase (RLU, signal half-life, Km); format: biochemical; conditions: 100 μM substrate; initial light output three minutes after substrate addition; relative to furimazine set to 1.0
Procedure: Each compound to be screened was dissolved in DMSO (5 mM) and then further diluted to 100 μM in NANO-GEO® Luciferase Assay Buffer. A two-fold dilution series was prepared for each substrate by serially diluting 500 μl of the substrate solution with 500 μl of NANO-GLO® Luciferase Assay Buffer. Each diluted substrate titration was then combined in equal volumes with purified NANOLUC® Luciferase diluted into CO2 independent media+10% FBS. Initial light output for each substrate was measured in a GLOMAX®-Multi+ luminometer three minutes after substrate addition and then at five minute intervals as a means to determine signal half-life. Signal half-life was calculated using GraphPad Prism One Phase Decay regression and Km and Vmax were calculated using GraphPad Prism using Michaelis-Menten regression.
The synthesized coelenterazine analogues (compounds of formula (I) and (II)) were evaluated for their suitability as luciferase substrates. NANOLUC® luciferase was employed for the screening because it is a small (19 kDa), stable, and particularly bright enzyme. […] RLU, half-life, and Km values are for furimazine is set to 1.0. […]

[1] = Solubility testing in formulation, UV-Vis of supernatant vs 0.2 micron filtrate; format: physicochemical; conditions: 8.7 mM in ethanol/propylene glycol/hydroxypropyl-β-cyclodextrin/PEG 400/water (10:10:10:35:35); UV spectra of supernatant vs filtrate
Procedure: This 5× stock solution was then added to a solution of hydroxypropyl-β-cyclodextrin/water/PEG400 to give a formulation mixture of 8.7 mM in ethanol/propylene glycol/hydroxypropyl-β-cyclodextrin/PEG 400/water (10:10:10:35:35). The mixture was vortexed and centrifuged. Supernatant was sampled and measured in a UV-Vis spectrometer. The mixture was filtered through a 0.2 micron syringe filter and the filtrate was measured and compared to the supernatant.
Shown in FIG. 1 are UV spectra of JRW-1040 in the formulation, comparing supernatant and filtrate. The two UV spectra are superimposed, showing JRW-1040 is fully soluble in the formulation. Shown in FIG. 2 is the same experiment with furimazine. […] This is an example showing improvements in solubility compared to furimazine.

Sequence of NANOLUC® Luciferase (Q9GV45 28-196 with tags or gaps with the stated changes limits assumed): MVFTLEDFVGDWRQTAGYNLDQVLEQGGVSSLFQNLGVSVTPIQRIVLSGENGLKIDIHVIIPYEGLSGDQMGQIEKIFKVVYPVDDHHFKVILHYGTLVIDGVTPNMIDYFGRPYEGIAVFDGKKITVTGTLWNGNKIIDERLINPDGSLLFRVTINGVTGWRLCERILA

| Compound | RLU (@100 μM) (NANOLUC® Luciferase) | Solubility in the formulation [1] |
| --- | --- | --- |
| O=c1c(Cc2cccs2)nc2c(Cc3ccccc3)[nH]c(-c3cccc(O)c3)cn1-2 [JRW-1040, 8-benzyl-6-(3-hydroxyphenyl)-2-(thiophen-2-ylmethyl)imidazo[1,2-a]pyrazin-3(7H)-one] | 0.8 | fully soluble |
| O=c1c(Cc2ccco2)nc2c(Cc3ccccc3)[nH]c(-c3ccccc3)cn1-2 [Furimazine, 8-benzyl-2-(furan-2-ylmethyl)-6-phenylimidazo[1,2-a]pyrazin-3(7H)-one, reference compound] | 1 | not fully soluble |
| COCc1cccc(Cc2nc3c(Cc4ccccc4)[nH]c(-c4cccc(O)c4)cn-3c2=O)c1 [JRW-0373, 8-benzyl-6-(3-hydroxyphenyl)-2-(3-(methoxymethyl)benzyl)imidazo[1,2-a]pyrazin-3(7H)-one] | 0.27 | – |
| Nc1ccc(F)c(-c2cn3c(=O)c(Cc4ccco4)nc-3c(Cc3ccccc3)[nH]2)c1 [JRW-1411, 6-(5-amino-2-fluorophenyl)-8-benzyl-2-(furan-2-ylmethyl)imidazo[1,2-a]pyrazin-3(7H)-one] | 0.001 | – |
| O=c1c(Cc2ccc(F)cc2)nc2c(Cc3ccccc3)[nH]c(-c3cccc(O)c3)cn1-2 [JRW-0786, 8-benzyl-2-(4-fluorobenzyl)-6-(3-hydroxyphenyl)imidazo[1,2-a]pyrazin-3(7H)-one] | 0.88 | – |
| Cc1ccc(Cc2nc3c(Cc4ccccc4)[nH]c(-c4cccc(O)c4)cn-3c2=O)o1 [JRW-1056, 8-benzyl-6-(3-hydroxyphenyl)-2-((5-methylfuran-2-yl)methyl)imidazo[1,2-a]pyrazin-3(7H)-one] | 1.1 | – |
| O=c1c(Cc2ccco2)nc2c(Cc3ccccc3)[nH]c(-c3cc(O)ccc3Cl)cn1-2 [JRW-1525, 8-benzyl-6-(2-chloro-5-hydroxyphenyl)-2-(furan-2-ylmethyl)imidazo[1,2-a]pyrazin-3(7H)-one] | 0.4 | – |
